The target of one assay is recombinant Plk1 (Homo sapiens, UniProt P53350). Nature of the assay: In Vitro Plk1 Enzyme Assay (SPA, GST-Cdc25C phosphorylation). The format is biochemical. Particulars: ATP 64 nM, 90 minutes, read-out: IC50 (Plk1 enzyme inhibition).
For assay [1], the system named is human colon tumour cell line HT29. Nature of the assay: Cellular Assay (phosphohistone H3 Ser10 mitotic marker, HT29). The assay is classed as cell-based. The following applies: HT-29, 24 h, HT29 cells, read-out: IC50 (cellular assay, phosphohistone H3).
Method: Chromosome condensation in mitosis is accompanied by phosphorylation of histone H3 on serine 10.
After 24 hours, cells were fixed in 3.7% (v/v) formaldehyde then permeabilised and blocked for 10 minutes in 100 μl 0.5% (v/v) Triton X-100, 1% (w/v) bovine serum albumin (BSA) in phosphate buffered saline (PBS). […] The raw assay data were analysed by non-linear regression analysis and used to determine an IC50 value for each compound.

Sequence of recombinant Plk1 (P53350 whole entry): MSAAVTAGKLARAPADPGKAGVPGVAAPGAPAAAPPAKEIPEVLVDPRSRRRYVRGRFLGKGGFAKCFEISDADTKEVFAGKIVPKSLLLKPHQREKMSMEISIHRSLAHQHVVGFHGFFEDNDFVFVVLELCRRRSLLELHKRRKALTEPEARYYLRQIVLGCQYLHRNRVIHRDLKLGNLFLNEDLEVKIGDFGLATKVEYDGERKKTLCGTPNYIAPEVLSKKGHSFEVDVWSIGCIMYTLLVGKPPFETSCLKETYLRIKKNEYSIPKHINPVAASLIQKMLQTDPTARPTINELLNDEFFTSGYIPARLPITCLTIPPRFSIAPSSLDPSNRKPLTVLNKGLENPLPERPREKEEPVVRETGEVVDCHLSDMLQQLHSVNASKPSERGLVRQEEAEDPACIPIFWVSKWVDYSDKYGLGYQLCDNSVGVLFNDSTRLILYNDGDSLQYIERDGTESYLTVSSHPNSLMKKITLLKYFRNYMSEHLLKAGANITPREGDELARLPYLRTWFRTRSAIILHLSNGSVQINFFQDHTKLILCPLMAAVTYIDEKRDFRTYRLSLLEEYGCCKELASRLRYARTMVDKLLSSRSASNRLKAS
Method for recombinant Plk1: Reactions were stopped by addition of EDTA (110 mM) and the Cdc25C substrate captured via its GST tag to anti-GST antibody (Molecular Probes, Cat No A-5800) coated Protein A PVT SPA beads (Amersham Biosciences, Catalogue No. RPQ0019; 250 μg/well) in 50 mM HEPES pH7.5 buffer containing 0.05% (w/v) sodium azide and incubated for up to 2 hours, followed by the addition of 20 μl of 4M caesium chloride (final assay concentration of 1M). Plates were then left in the dark overnight before counting on a Packard TopCount NXT.
Radiolabelled phosphorylated substrate is formed in situ as a result of Plk1 mediated phosphorylation. The SPA beads contain a scintillant that can be stimulated to emit light. This stimulation only occurs when a radiolabelled phosphorylated substrate is bound to the surface of the coated SPA bead causing the emission of blue light that can be measured on a scintillation counter. Accordingly, the extent of Plk1 mediated Cdc25C phosphorylation was assessed. The raw assay data were then analysed by non-linear regression analysis and Plk1 enzyme inhibition for a given test compound is expressed as an IC50 value.

Consider `COc1cc(C(=O)NCCN2CC3CCC(C2)O3)ccc1Nc1ncc2c(n1)N(C1CCCC1)CCC(=O)N2C` [Example 32, 4-[(6-cyclopentyl-2-methyl-3-oxo-2,6,8,10-tetrazabicyclo[5.4.0]undeca-8,10,12-trien-9-yl)amino]-3-methoxy-N-[2-(8-oxa-3-azabicyclo[3.2.1]oct-3-yl)ethyl]benzamide], for which the IC50 on recombinant Plk1 was below 1000 nM; in assay [1], below 300 nM.

For the compound `COc1cc(C(=O)NCCCCN2CCCC2)ccc1Nc1ncc2c(n1)N(C1CCCC1)CCC(=O)N2C` [Example 33, 4-[(6-cyclopentyl-2-methyl-3-oxo-2,6,8,10-tetrazabicyclo[5.4.0]undeca-8,10,12-trien-9-yl)amino]-3-methoxy-N-(4-pyrrolidin-1-ylbutyl)benzamide], the IC50 (at recombinant Plk1; in assay [1]) was below 300 nM in each case.

With `COc1cc(C(=O)NCCN2CCN(C)CC2)ccc1Nc1ncc2c(n1)N(C1CCCC1)CCC(=O)N2C` [Example 34, 4-[(6-cyclopentyl-2-methyl-3-oxo-2,6,8,10-tetrazabicyclo[5.4.0]undeca-8,10,12-trien-9-yl)amino]-3-methoxy-N-[2-(4-methylpiperazin-1-yl)ethyl]benzamide], the IC50 (at recombinant Plk1; in assay [1]) was below 300 nM throughout.

As to `COc1cc(C(=O)NCCN2CCC(F)(F)CC2)ccc1Nc1ncc2c(n1)N(C1CCCC1)CCC(=O)N2C` [Example 37, 4-[(6-cyclopentyl-2-methyl-3-oxo-2,6,8,10-tetrazabicyclo[5.4.0]undeca-8,10,12-trien-9-yl)amino]-N-[2-(4,4-difluoro-1-piperidyl)ethyl]-3-methoxy-benzamide], the IC50 on recombinant Plk1 is below 1000 nM; in assay [1], below 300 nM.

As for `COc1cc(C(=O)NCCCNc2ccccn2)ccc1Nc1ncc2c(n1)N(C1CCCC1)CCC(=O)N2C` [Example 38, 4-[(6-cyclopentyl-2-methyl-3-oxo-2,6,8,10-tetrazabicyclo[5.4.0]undeca-8,10,12-trien-9-yl)amino]-3-methoxy-N-[3-(pyridin-2-ylamino)propyl]benzamide], the IC50 at recombinant Plk1 was below 1000 nM; in assay [1] it was below 300 nM.

For `COc1cc(C(=O)NCCCCN)ccc1Nc1ncc2c(n1)N(C1CCCC1)CCC(=O)N2C` [Example 40, N-(4-aminobutyl)-4-[(6-cyclopentyl-2-methyl-3-oxo-2,6,8,10-tetrazabicyclo[5.4.0]undeca-8,10,12-trien-9-yl)amino]-3-methoxy-benzamide], the results for the IC50 (at recombinant Plk1; in assay [1]) were below 300 nM and below 30000 nM, respectively.

On to `COc1cc(C(=O)NC2CCNCC2)ccc1Nc1ncc2c(n1)N(C1CCCC1)CCC(=O)N2C` [Example 41, 4-[(6-cyclopentyl-2-methyl-3-oxo-2,6,8,10-tetrazabicyclo[5.4.0]undeca-8,10,12-trien-9-yl)amino]-3-methoxy-N-(4-piperidyl)benzamide], for which the IC50 (at recombinant Plk1; in assay [1]) was below 300 nM throughout.

As for `COc1cc(C(=O)NCCCN)ccc1Nc1ncc2c(n1)N(C1CCCC1)CCC(=O)N2C` [Example 42, N-(3-aminopropyl)-4-[(6-cyclopentyl-2-methyl-3-oxo-2,6,8,10-tetrazabicyclo[5.4.0]undeca-8,10,12-trien-9-yl)amino]-3-methoxy-benzamide], the IC50 at recombinant Plk1 is below 300 nM; in assay [1], below 30000 nM.

For `CNCCNC(=O)c1ccc(Nc2ncc3c(n2)N(C2CCCC2)CCC(=O)N3C)c(OC)c1` [Example 43, 4-[(6-cyclopentyl-2-methyl-3-oxo-2,6,8,10-tetrazabicyclo[5.4.0]undeca-8,10,12-trien-9-yl)amino]-3-methoxy-N-(2-methylaminoethyl)benzamide], the IC50 (on recombinant Plk1; in assay [1]) was below 300 nM each time.

With `CNCCCNC(=O)c1ccc(Nc2ncc3c(n2)N(C2CCCC2)CCC(=O)N3C)c(OC)c1` [Example 44, 4-[(6-cyclopentyl-2-methyl-3-oxo-2,6,8,10-tetrazabicyclo[5.4.0]undeca-8,10,12-trien-9-yl)amino]-3-methoxy-N-(3-methylaminopropyl)benzamide], the IC50 (at recombinant Plk1; in assay [1]) was below 300 nM in each case.

Regarding `COc1cc(C(=O)NC2CCNC2)ccc1Nc1ncc2c(n1)N(C1CCCC1)CCC(=O)N2C` (stereo not drawn) [Example 45, 4-[(6-cyclopentyl-2-methyl-3-oxo-2,6,8,10-tetrazabicyclo[5.4.0]undeca-8,10,12-trien-9-yl)amino]-3-methoxy-N-pyrrolidin-3-yl-benzamide], the IC50 (on recombinant Plk1; in assay [1]) was below 300 nM in each case.

In the case of `COc1cc(C(=O)NCC(C)(C)CN)ccc1Nc1ncc2c(n1)N(C1CCCC1)CCC(=O)N2C` [Example 46, N-(3-amino-2,2-dimethyl-propyl)-4-[(6-cyclopentyl-2-methyl-3-oxo-2,6,8,10-tetrazabicyclo[5.4.0]undeca-8,10,12-trien-9-yl)amino]-3-methoxy-benzamide], the IC50 (on recombinant Plk1; in assay [1]) was below 300 nM throughout.

Regarding `COc1cc(C(=O)NC[C@@H]2CCNC2)ccc1Nc1ncc2c(n1)N(C1CCCC1)CCC(=O)N2C` [Example 47, 4-[(6-cyclopentyl-2-methyl-3-oxo-2,6,8,10-tetrazabicyclo[5.4.0]undeca-8,10,12-trien-9-yl)amino]-3-methoxy-N-[[(3R)-pyrrolidin-3-yl]methyl]benzamide], the IC50 at recombinant Plk1 was below 300 nM; in assay [1], below 1000 nM.

Take `COc1cc(C(=O)NC2CCN(C)CC2)c(F)cc1Nc1ncc2c(n1)N(C1CCCC1)CCC(=O)N2C` [Example 48, 4-[(6-cyclopentyl-2-methyl-3-oxo-2,6,8,10-tetrazabicyclo[5.4.0]undeca-8,10,12-trien-9-yl)amino]-2-fluoro-5-methoxy-N-(1-methyl-4-piperidyl)benzamide]: the IC50 (on recombinant Plk1; in assay [1]) was below 300 nM in each case.

For `COc1cc(C(=O)NC2CCN(C(C)C)CC2)ccc1Nc1ncc2c(n1)N(C1CCCC1)CCC(=O)N2C` [Example 49, 4-[(6-cyclopentyl-2-methyl-3-oxo-2,6,8,10-tetrazabicyclo[5.4.0]undeca-8,10,12-trien-9-yl)amino]-3-methoxy-N-(1-propan-2-yl-4-piperidyl)benzamide], the IC50 (at recombinant Plk1; in assay [1]) was below 300 nM throughout.

For the compound `COc1cc(C(=O)NC2CCN(C(=O)OC(C)(C)C)CC2)ccc1Nc1ncc2c(n1)N(C1CCCC1)CCC(=O)N2C` [Example 50, tert-butyl 4-[[4-[(6-cyclopentyl-2-methyl-3-oxo-2,6,8,10-tetrazabicyclo[5.4.0]undeca-8,10,12-trien-9-yl)amino]-3-methoxy-benzoyl]amino]piperidine-1-carboxylate], the values for the IC50 (on recombinant Plk1; in assay [1]) were below 100000 nM and below 300 nM, respectively.

`COc1cc(C(=O)N[C@H]2[C@@H]3CN(C(=O)OCc4ccccc4)C[C@@H]32)ccc1Nc1ncc2c(n1)N(C1CCCC1)CCC(=O)N2C` [Example 51, Benzyl(1S,5R)-6-[[4-[(6-cyclopentyl-2-methyl-3-oxo-2,6,8,10-tetrazabicyclo[5.4.0]undeca-8,10,12-trien-9-yl)amino]-3-methoxy-benzoyl]amino]-3-azabicyclo[3.1.0]hexane-3-carboxylate]: the results for the IC50 (at recombinant Plk1; in assay [1]) were below 100000 nM and below 1000 nM, respectively.

As for `COc1cc(C(=O)N[C@@H]2CCN(C(=O)OC(C)(C)C)C2)ccc1Nc1ncc2c(n1)N(C1CCCC1)CCC(=O)N2C` [Example 52, tert-butyl (3R)-3-[[4-[(6-cyclopentyl-2-methyl-3-oxo-2,6,8,10-tetrazabicyclo[5.4.0]undeca-8,10,12-trien-9-yl)amino]-3-methoxy-benzoyl]amino]pyrrolidine-1-carboxylate], the IC50 on recombinant Plk1 was below 1000 nM; in assay [1] it was below 300 nM.

Turning to `COc1cc(C(=O)N[C@H]2CCN(C(=O)OC(C)(C)C)C2)ccc1Nc1ncc2c(n1)N(C1CCCC1)CCC(=O)N2C` [Example 53, tert-butyl (3S)-3-[[4-[(6-cyclopentyl-2-methyl-3-oxo-2,6,8,10-tetrazabicyclo[5.4.0]undeca-8,10,12-trien-9-yl)amino]-3-methoxy-benzoyl]amino]pyrrolidine-1-carboxylate], the IC50 is below 100000 nM at recombinant Plk1 and below 1000 nM in assay [1].

In the case of `COc1cc(C(=O)NC2CCN(C(=O)OCc3ccccc3)CC2)ccc1Nc1ncc2c(n1)N(C1CCCC1)CCC(=O)N2C` [Example 54, Benzyl 4-[[4-[(6-cyclopentyl-2-methyl-3-oxo-2,6,8,10-tetrazabicyclo[5.4.0]undeca-8,10,12-trien-9-yl)amino]-3-methoxy-benzoyl]amino]piperidine-1-carboxylate], the IC50 at recombinant Plk1 was below 100000 nM; in assay [1], below 300 nM.

As to `COc1cc(C(=O)N[C@@H]2CCNC2)ccc1Nc1ncc2c(n1)N(C1CCCC1)CCC(=O)N2C` [Example 55, 4-[(6-cyclopentyl-2-methyl-3-oxo-2,6,8,10-tetrazabicyclo[5.4.0]undeca-8,10,12-trien-9-yl)amino]-3-methoxy-N-[(3R)-pyrrolidin-3-yl]benzamide], the IC50 (on recombinant Plk1; in assay [1]) was below 300 nM in each case.

Consider `COc1cc(C(=O)N[C@H]2CCNC2)ccc1Nc1ncc2c(n1)N(C1CCCC1)CCC(=O)N2C` [Example 56, 4-[(6-cyclopentyl-2-methyl-3-oxo-2,6,8,10-tetrazabicyclo[5.4.0]undeca-8,10,12-trien-9-yl)amino]-3-methoxy-N-[(3S)-pyrrolidin-3-yl]benzamide], for which the IC50 was below 300 nM on recombinant Plk1 and below 1000 nM in assay [1].

With `COc1cc(C(=O)N[C@H]2[C@@H]3CNC[C@@H]32)ccc1Nc1ncc2c(n1)N(C1CCCC1)CCC(=O)N2C` [Example 57, N-[(1S,5R)-3-azabicyclo[3.1.0]hex-6-yl]-4-[(6-cyclopentyl-2-methyl-3-oxo-2,6,8,10-tetrazabicyclo[5.4.0]undeca-8,10,12-trien-9-yl)amino]-3-methoxy-benzamide], the IC50 (at recombinant Plk1; in assay [1]) was below 300 nM in each case.

With `CCN(CC)C1CCC(NC(=O)c2ccc(Nc3ncc4c(n3)N(C3CCCC3)CCC(=O)N4C)c(OC)c2)CC1` (stereo not drawn) [Example 58, 4-[(6-cyclopentyl-2-methyl-3-oxo-2,6,8,10-tetrazabicyclo[5.4.0]undeca-8,10,12-trien-9-yl)amino]-N-(4-diethylaminocyclohexyl)-3-methoxy-benzamide], the IC50 (at recombinant Plk1; in assay [1]) was below 300 nM throughout.

In general, IC50 refers to the concentration at which inhibition is half-maximal.

(Values after US7709471B2, “Compounds” (AstraZeneca AB, priority 2006, dated 2010).)
